The record followed here is PMC8667045, “Into Deep Water: Optimizing BCL6 Inhibitors by Growing into a Solvated Pocket” (Journal of Medicinal Chemistry, 2021).

One series has as its target BCL6 BTB domain (Homo sapiens, UniProt P41182). In words: biochemical. The following applies: for BCL6 TR-FRET pIC50 mean: mean of n replicates. The method, then: Supplementary experimental: protein production, purification and crystallography
3C protease cleavage site.
used without cleaving the tag, as a 6His was needed to bind to the anti-6His-Terbium antibody. For
For both plasmid constructs described above, transformed BL21-AI E. coli cells were grown in LB
carried out at 18 °C for 18 hours. Cells were harvested by centrifugation (5500 g for 30 minutes at 4
oC) and stored at -80 °C.
Cells were re-suspended in a buffer composed of 20 mM Tris pH 8, 250 mM NaCl, 1 mM MgCl2, 0.5
Cells were lysed by sonication followed by centrifugation at 21,000 g for 45 minutes at 4 °C. […]
The final protein was assessed for purity
and molar mass by SDS-PAGE and high-resolution mass spectrometry, respectively.
directly eluted from the HisTrap FF column without HRV-3C treatment, and submitted to Superdex75
gel filtration as described above. […]
2. Supplementary experimental: biological assay conditions
IC50 values were determined using
a sigmoidal four-parameter logistic fit equation.
Background: In TR-FRET formats the signal depends on donor and acceptor labels being close together.

A short description of a further series: NMR solubility assay. The following applies: HEPES buffer, 5% DMSO, room temperature. Type of series: physicochemical. The procedure: 3. Supplementary experimental: physicochemical assays
The plate was then sealed and incubated at room temperature for 20 hours, without shaking. The plate was centrifuged again for 1 minute at […]
spectrometer equipped with a 5 mm TCI-CryoProbe. […]
deuterated solvent. […] All NMR data were acquired at the […]
contained 16k time-domain data points. Relaxation delay was set to 20 sec. […]

A short description of series [1]: PAMPA passive permeability pH 7.4. The following applies: for PAMPA7.4: pH 7.4, passive permeability Pe. For orientation: PAMPA measures passive passage across an artificial lipid membrane.
The mark [2] stands for this setting: TR-FRET IC50 individual replicates, single replicates, italic values used 10nM BCL6, otherwise 1nM BCL6.
[3] abbreviates: read-out: BCL6 TR-FRET Geo Mean IC50, geometric mean of n replicates, supplement.
The mark [4] stands for this setting: read-out: TR-FRET IC50, tables and figures.
The mark [5] stands for this setting: read-out: TR-FRET IC50 individual replicates, single replicates, italic values used 10nM BCL6, otherwise 1nM BCL6.

The structures appear in SMILES notation. In brackets after ≈: the same amount, converted by molar mass. Several values for one entry are separate records, joined by “and”; a condition that tells them apart may be missing. Equal entries are not always repeated. Where two headings read alike, the source gives them in different places. Bounds are passed on as bounds.

With `CCNc1cc(=O)n(C)c2ccc(Nc3cc(C(=O)O)nc(Cl)c3C#N)cc12` [Compound 11a, 6-Chloro-5-cyano-4-((4-(ethylamino)-1-methyl-2-oxo-1,2-dihydroquinolin-6-yl)amino)picolinic Acid], the IC50 against BCL6 BTB domain (setting [2]) was 810 nM and 840 nM and 1120 nM; at BCL6 BTB domain (setting [3]) it was 901 nM; at BCL6 BTB domain (setting [4]), 900 nM; on BCL6 BTB domain (setting [5]), 890 nM and 870 nM. Also, the “BCL6 TR-FRET pIC50 mean” value on BCL6 BTB domain is 6.05 and 6.045. The compound also showed a solubility at 20 h in the series “NMR solubility assay” of 237 µM (≈ 94.3 µg/mL).

On to `CCCNc1cc(=O)n(C)c2ccc(Nc3cc(C(=O)O)nc(Cl)c3C#N)cc12` [Compound 11b, 6-Chloro-5-cyano-4-((1-methyl-2-oxo-4-(propylamino)-1,2-dihydroquinolin-6-yl)amino)picolinic Acid], for which the IC50 was 1330 nM and 1810 nM against BCL6 BTB domain (setting [2]); 1510 nM at BCL6 BTB domain (setting [3]); 1510 nM at BCL6 BTB domain (setting [4]); 1440 nM and 1490 nM at BCL6 BTB domain (setting [5]). In addition, the “BCL6 TR-FRET pIC50 mean” value on BCL6 BTB domain was 5.82 and 5.822. In “NMR solubility assay”, this compound yielded a solubility at 20 h of 40 µM (≈ 16.5 µg/mL).

In the case of `Cn1c(=O)cc(NCCF)c2cc(Nc3cc(C(=O)O)nc(Cl)c3C#N)ccc21` [Compound 11c, 6-Chloro-5-cyano-4-((4-((2-fluoroethyl)amino)-1-methyl-2-oxo-1,2-dihydroquinolin-6-yl)amino)picolinic Acid], the “BCL6 TR-FRET pIC50 mean” value at BCL6 BTB domain is 6.06 and 6.057. Further, the IC50 was 880 nM and 878 nM at BCL6 BTB domain (setting [3]); 880 nM at BCL6 BTB domain (setting [4]); 870 nM and 890 nM and 880 nM on BCL6 BTB domain (setting [5]). For the same compound, the solubility at 20 h in “NMR solubility assay” came out at 82 µM (≈ 34.1 µg/mL).

With `Cn1c(=O)cc(NCC2CC2)c2cc(Nc3cc(C(=O)O)nc(Cl)c3C#N)ccc21` [Compound 11d, 6-Chloro-5-cyano-4-((4-((cyclopropylmethyl)amino)-1-methyl-2-oxo-1,2-dihydroquinolin-6-yl)amino)picolinic Acid], the IC50 was 270 nM and 420 nM on BCL6 BTB domain (setting [2]); 350 nM and 346 nM on BCL6 BTB domain (setting [3]); 350 nM on BCL6 BTB domain (setting [4]); 360 nM and 350 nM on BCL6 BTB domain (setting [5]). In addition, at BCL6 BTB domain, the “BCL6 TR-FRET pIC50 mean” value is 6.46 and 6.461. Moreover, the concentration in solution in the series “NMR solubility assay” (solubility at 20 h) was 324 µM (≈ 137 µg/mL).

Take `CNC(=O)[C@@H](C)Nc1cc(=O)[nH]c2ccc(Nc3ccnc(Cl)c3C#N)cc12` [Compound 12b, (R)-2-((6-((2-Chloro-3-cyanopyridin-4-yl)amino)-2-oxo-1,2-dihydroquinolin-4-yl)amino)-N-methylpropanamide]: the IC50 against BCL6 BTB domain (setting [2]) is 300 nM (2×) and 220 nM and 280 nM and 190 nM; on BCL6 BTB domain (setting [3]), 253 nM; on BCL6 BTB domain (setting [4]) it was 250 nM; at BCL6 BTB domain (setting [5]), 240 nM and 260 nM. The “BCL6 TR-FRET pIC50 mean” value at BCL6 BTB domain is 6.60 and 6.596. The same compound displayed a solubility at 20 h in “NMR solubility assay” of 64 µM (≈ 25.4 µg/mL). Also, the Papp in series [1] (PAMPA, pH 7.4) is less than 0.2 ×10⁻⁶ cm/s. Further, in series [1], the PAMPA7.4 result is recorded as “no measurable passive permeability”.

Turning to `CNC(=O)[C@H](C)Nc1cc(=O)[nH]c2ccc(Nc3ccnc(Cl)c3C#N)cc12` [Compound 12c, (S)-2-((6-((2-Chloro-3-cyanopyridin-4-yl)amino)-2-oxo-1,2-dihydroquinolin-4-yl)amino)-N-methylpropanamide], the half-inhibitory concentration (IC50) is 3390 nM and 2070 nM and 2270 nM and 3400 nM and 3900 nM and 2940 nM and 1540 nM against BCL6 BTB domain (setting [2]); 2670 nM on BCL6 BTB domain (setting [3]); 2670 nM at BCL6 BTB domain (setting [4]). Also, the “BCL6 TR-FRET pIC50 mean” value on BCL6 BTB domain was 5.57 and 5.574. This compound also returned a solubility at 20 h in “NMR solubility assay” of 64 µM (≈ 25.4 µg/mL).

`CNC(=O)C(Nc1cc(=O)[nH]c2ccc(Nc3ccnc(Cl)c3C#N)cc12)C1CC1` (stereo not drawn) [Compound 12d, 2-((6-((2-Chloro-3-cyanopyridin-4-yl)amino)-2-oxo-1,2-dihydroquinolin-4-yl)amino)-2-cyclopropyl-N-methylacetamide]: the IC50 against BCL6 BTB domain (setting [2]) is 1180 nM and 970 nM; on BCL6 BTB domain (setting [3]), 1080 nM; on BCL6 BTB domain (setting [4]) it was 1080 nM; on BCL6 BTB domain (setting [5]), 1100 nM. The “BCL6 TR-FRET pIC50 mean” value on BCL6 BTB domain was 5.97 and 5.967. Besides, in the series “NMR solubility assay”, the solubility at 20 h is 52 µM (≈ 22 µg/mL).

In turn, `CNC(=O)C(C)Nc1cc(=O)n(C)c2ccc(Nc3ccnc(Cl)c3C#N)cc12` (stereo not drawn) [Compound 13a, 2-((6-((2-Chloro-3-cyanopyridin-4-yl)amino)-1-methyl-2-oxo-1,2-dihydroquinolin-4-yl)amino)-N-methylpropanamide] displayed a solubility at 20 h in the series “NMR solubility assay” of 184 µM (≈ 75.6 µg/mL). Further, the PAMPA7.4 in series [1] is on record as <0.2 x10^-6 cms^-1.

As for `Cc1nnc(C(C)Nc2cc(=O)n(C)c3ccc(Nc4ccnc(Cl)c4C#N)cc23)o1` (stereo not drawn) [Compound 13c, 2-Chloro-4-((1-methyl-4-((1-(5-methyl-1,3,4-oxadiazol-2-yl)ethyl)amino)-2-oxo-1,2-dihydroquinolin-6-yl)amino)nicotinonitrile], the IC50 at BCL6 BTB domain (setting [2]) is 1070 nM and 680 nM; at BCL6 BTB domain (setting [3]), 872 nM; at BCL6 BTB domain (setting [4]) it was 870 nM; on BCL6 BTB domain (setting [5]) it was 690 nM and 1180 nM and 840 nM. Also, the “BCL6 TR-FRET pIC50 mean” value on BCL6 BTB domain is 6.06 and 6.059. The compound also displayed a solubility at 20 h in “NMR solubility assay” of 247 µM (≈ 108 µg/mL). In series [1], the PAMPA7.4 is on record as <0.2 x10^-6 cms^-1.

`CC(Nc1cc(=O)n(C)c2ccc(Nc3ccnc(Cl)c3C#N)cc12)c1ncn(C)n1` (stereo not drawn) [Compound 13d, 2-Chloro-4-((1-methyl-4-((1-(1-methyl-1H-1,2,4-triazol-3-yl)ethyl)amino)-2-oxo-1,2-dihydroquinolin-6-yl)amino)nicotinonitrile] registered a solubility at 20 h in the series “NMR solubility assay” of 258 µM (≈ 112 µg/mL).

Take `C[C@@H](Nc1cc(=O)n(C)c2ccc(Nc3ccnc(Cl)c3C#N)cc12)c1ncccn1` [Compound 13f, (R)-2-Chloro-4-((1-methyl-2-oxo-4-((1-(pyrimidin-2-yl)ethyl)amino)-1,2-dihydroquinolin-6-yl)amino)nicotinonitrile]: the concentration in solution in “NMR solubility assay” (solubility at 20 h) came to 126 µM (≈ 54.4 µg/mL). Besides, in series [1], the PAMPA7.4 was 0.8 x10^-6 cms^-1.

In the case of `CC(Nc1cc(=O)n(CC2CC2)c2ccc(Nc3ccnc(Cl)c3C#N)cc12)c1ncccn1` (stereo not drawn) [Compound 17a, 2-Chloro-4-((1-(cyclopropylmethyl)-2-oxo-4-((1-(pyrimidin-2-yl)ethyl)amino)-1,2-dihydroquinolin-6-yl)amino)nicotinonitrile], the IC50 at BCL6 BTB domain (setting [2]) is 230 nM and 790 nM; on BCL6 BTB domain (setting [3]), 418 nM; at BCL6 BTB domain (setting [4]), 420 nM; on BCL6 BTB domain (setting [5]), 410 nM. For the same compound, the “BCL6 TR-FRET pIC50 mean” value on BCL6 BTB domain is 6.38 and 6.379. In “NMR solubility assay”, this compound yielded a solubility at 20 h of 72 µM (≈ 34 µg/mL). Further, the PAMPA7.4 in series [1] is on record as 8.5 x10^-6 cms^-1.

On to `CC(Nc1cc(=O)n(CC2CCC2)c2ccc(Nc3ccnc(Cl)c3C#N)cc12)c1ncccn1` (stereo not drawn) [Compound 17b, 2-Chloro-4-((1-(cyclobutylmethyl)-2-oxo-4-((1-(pyrimidin-2-yl)ethyl)amino)-1,2-dihydroquinolin-6-yl)amino)nicotinonitrile], for which the IC50 against BCL6 BTB domain (setting [2]) was 250 nM and 210 nM and 640 nM; on BCL6 BTB domain (setting [3]) it was 324 nM; on BCL6 BTB domain (setting [4]) it was 320 nM. Besides, the “BCL6 TR-FRET pIC50 mean” value at BCL6 BTB domain was 6.49 and 6.489. Further, the solubility at 20 h in “NMR solubility assay” is 32 µM (≈ 15.6 µg/mL). Besides, the PAMPA7.4 in series [1] is 21 x10^-6 cms^-1.

On to `CC(Nc1cc(=O)n(C)c2ccc(Nc3ccnc(Cl)c3C#N)cc12)c1ncc(C2CC2)cn1` (stereo not drawn) [Compound 24b, 2-Chloro-4-((4-((1-(5-cyclopropylpyrimidin-2-yl)ethyl)amino)-1-methyl-2-oxo-1,2-dihydroquinolin-6-yl)amino)nicotinonitrile], for which the solubility at 20 h in the series “NMR solubility assay” was found to be 32 µM (≈ 15.1 µg/mL). In series [1], the PAMPA7.4 was 14 x10^-6 cms^-1.

The IC50 is the concentration that gives 50% inhibition. The solubility is how much of the substance goes into solution per volume. Read a low solubility as little dissolved substance. One may read the Papp as a coefficient for how fast a substance crosses the barrier.
